Assay in all cases: In vitro competitive activity-based protein profiling (gel-based, FP-Rh or HT-01 probe)
What all share (format): biochemical

One assay concerns the target T1, ABHD6 (Mus musculus, UniProt Q8R2Y0).
T1 construct: Proteomes (mouse brain membrane fraction or cell lysates); from tissue; host or cells: mouse brain membrane fraction (or cell lysates, not specified)
T1 sequence (Q8R2Y0 1-336): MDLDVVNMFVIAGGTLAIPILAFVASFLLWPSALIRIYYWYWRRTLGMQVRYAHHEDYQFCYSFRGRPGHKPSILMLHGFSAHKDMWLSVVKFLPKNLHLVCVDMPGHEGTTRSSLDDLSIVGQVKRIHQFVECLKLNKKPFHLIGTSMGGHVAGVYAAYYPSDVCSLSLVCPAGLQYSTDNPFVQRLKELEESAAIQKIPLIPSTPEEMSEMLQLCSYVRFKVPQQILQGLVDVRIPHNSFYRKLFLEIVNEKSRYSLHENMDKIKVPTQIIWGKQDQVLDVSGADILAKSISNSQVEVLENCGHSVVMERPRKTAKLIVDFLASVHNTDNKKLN
The settings on record: for inhibition at 1 µM: 1 μM inhibitor, read-out: % Inhibition at 1 μM, C = ABHD6; for inhibition at 10 µM: 10 μM inhibitor, read-out: % Inhibition at 10 μM, C = ABHD6; for IC50: mouse brain membrane fraction or cell lysates, 30 min preincubation at 37° C., read-out: Mouse (IC50 value, nM) ABHD6. A digest of the protocol:
(§1)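 Read-out: fluorescent band intensity on SDS-PAGE gels, reporting remaining serine hydrolase activity. Before that, proteome (mouse brain membranes or cell lysates, 1.0 mg/mL) saw a range of inhibitor concentrations for 30 min at 37° C, followed by 30 min probe labelling (FP-Rh or HT-01).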

The next assay deals with T2, FAAH (Mus musculus, UniProt O08914).
T2 construct: Proteomes (mouse brain membrane fraction or cell lysates); from tissue; host or cells: mouse brain membrane fraction (or cell lysates, not specified)
T2 sequence (O08914 1-579): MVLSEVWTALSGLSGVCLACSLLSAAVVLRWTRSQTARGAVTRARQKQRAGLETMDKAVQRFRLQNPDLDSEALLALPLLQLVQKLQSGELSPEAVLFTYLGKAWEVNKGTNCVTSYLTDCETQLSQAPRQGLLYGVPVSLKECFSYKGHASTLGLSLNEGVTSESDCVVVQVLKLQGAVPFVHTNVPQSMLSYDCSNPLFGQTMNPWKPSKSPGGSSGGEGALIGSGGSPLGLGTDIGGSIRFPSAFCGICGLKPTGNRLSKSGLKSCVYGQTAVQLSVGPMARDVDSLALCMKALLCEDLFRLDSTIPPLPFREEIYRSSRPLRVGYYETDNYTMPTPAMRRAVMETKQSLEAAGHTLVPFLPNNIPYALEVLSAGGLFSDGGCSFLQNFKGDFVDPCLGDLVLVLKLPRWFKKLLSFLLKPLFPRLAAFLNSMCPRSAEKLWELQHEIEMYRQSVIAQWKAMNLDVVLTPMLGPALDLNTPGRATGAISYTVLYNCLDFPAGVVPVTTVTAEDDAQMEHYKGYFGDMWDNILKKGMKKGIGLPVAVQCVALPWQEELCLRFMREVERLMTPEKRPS
The following applies: for inhibition at 1 µM: 1 μM inhibitor, read-out: % Inhibition at 1 μM, B = FAAH; for inhibition at 10 µM: 10 μM inhibitor, read-out: % Inhibition at 10 μM, B = FAAH; for IC50: mouse brain membrane fraction or cell lysates, 30 min preincubation at 37° C., read-out: Mouse (IC50 value, nM) FAAH. The method, boiled down: as §1

The target in the next assay is T3, MAGL (Mus musculus, UniProt O35678).
T3 construct: Proteomes (mouse brain membrane fraction or cell lysates); from tissue; host or cells: mouse brain membrane fraction (or cell lysates, not specified)
T3 sequence (O35678 1-303): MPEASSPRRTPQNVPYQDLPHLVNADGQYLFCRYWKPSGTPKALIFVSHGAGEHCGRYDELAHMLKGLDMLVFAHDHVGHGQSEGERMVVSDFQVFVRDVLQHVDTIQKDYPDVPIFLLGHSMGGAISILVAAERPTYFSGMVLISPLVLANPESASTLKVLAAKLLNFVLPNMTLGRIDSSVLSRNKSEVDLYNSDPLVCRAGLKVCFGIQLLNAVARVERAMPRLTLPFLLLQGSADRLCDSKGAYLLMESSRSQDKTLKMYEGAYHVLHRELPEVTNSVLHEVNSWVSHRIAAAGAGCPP
The settings on record: for inhibition at 1 µM: 1 μM inhibitor; for inhibition at 10 µM: 10 μM inhibitor; for IC50: mouse brain membrane fraction or cell lysates, 30 min preincubation at 37° C., read-out: Mouse (IC50 value, nM) MAGL. A digest of the protocol:
as §1

For a further assay, the target named is T4, PLA2G7 (Mus musculus, UniProt Q60963).
T4 construct: Proteomes (mouse brain membrane fraction or cell lysates); from tissue; host or cells: mouse brain membrane fraction (or cell lysates, not specified)
T4 sequence (Q60963 22-440): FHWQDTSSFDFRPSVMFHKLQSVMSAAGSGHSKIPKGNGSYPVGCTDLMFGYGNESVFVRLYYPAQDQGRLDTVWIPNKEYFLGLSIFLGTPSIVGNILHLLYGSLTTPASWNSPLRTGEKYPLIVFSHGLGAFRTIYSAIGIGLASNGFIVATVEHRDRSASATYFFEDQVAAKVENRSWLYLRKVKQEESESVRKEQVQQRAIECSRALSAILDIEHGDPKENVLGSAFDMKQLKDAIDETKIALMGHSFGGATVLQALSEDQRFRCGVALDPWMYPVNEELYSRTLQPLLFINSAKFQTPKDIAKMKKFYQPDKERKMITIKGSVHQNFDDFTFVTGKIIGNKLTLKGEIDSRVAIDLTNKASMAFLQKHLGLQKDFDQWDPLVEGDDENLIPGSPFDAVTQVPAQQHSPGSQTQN
The following applies: for inhibition at 1 µM: 1 μM inhibitor, read-out: % Inhibition at 1 μM, D = PLA2G7; for inhibition at 10 µM: 10 μM inhibitor, read-out: % Inhibition at 10 μM, D = PLA2G7; for IC50: mouse brain membrane fraction or cell lysates, 30 min preincubation at 37° C. A digest of the protocol: as §1

Where two headings read alike, the source gives them in different places. Some results are limits rather than exact numbers.

For the compound `CN(CCN(C)S(C)(=O)=O)C(=O)n1cc(C#N)cn1` [Example 197, 4-Cyano-N-methyl-N-(2-(N-methylmethylsulfonamido)ethyl)-1H-pyrazole-1-carboxamide], the inhibition at 1 µM was below 25% on ABHD6, 25 to 75% on FAAH, below 25% at MAGL and below 25% at PLA2G7. Also, the inhibition at 10 µM on ABHD6 was 25 to 75%; on FAAH it was above 75%; at MAGL, below 25%.

`CN(CCN(C)S(C)(=O)=O)C(=O)n1cc(C(F)(F)F)cn1` [Example 195, N-Methyl-N-(2-(N-methylmethylsulfonamido)ethyl)-4-(trifluoromethyl)-1H-pyrazole-1-carboxamide]: the inhibition at 1 µM at ABHD6, on FAAH, on MAGL and on PLA2G7 was below 25% in each case. Moreover, the inhibition at 10 µM at ABHD6 was above 75%; at FAAH it was above 75%; on MAGL, below 25%; on PLA2G7 it was 25 to 75%.

With `O=C(c1cnn(C(=O)N2CCN(Cc3nccs3)CC2)c1)N1CCCC1` [Example 83, Pyrrolidin-1-yl(1-(4-(thiazol-2-ylmethyl)piperazine-1-carbonyl)-1H-pyrazol-4-yl)methanone], the inhibition at 1 µM on ABHD6, on FAAH, on MAGL and on PLA2G7 was below 25% in each case. Further, the inhibition at 10 µM is above 75% at ABHD6, above 75% at FAAH, below 25% on MAGL and above 75% at PLA2G7.

`O=C(N1CCN(Cc2ccc(Oc3ccccc3)cc2)CC1)n1cccn1` [Example 16, (4-(4-Phenoxybenzyl)piperazin-1-yl)(1H-pyrazol-1-yl)methanone]: the inhibition at 1 µM is above 75% on ABHD6, below 25% at FAAH, above 75% at MAGL and below 25% at PLA2G7. The inhibition at 10 µM at ABHD6, on FAAH, on MAGL and at PLA2G7 was above 75% each time.

Turning to `O=C(N1CCN(Cc2cccc(Cl)c2)CC1)n1cc(Cl)cn1` [Example 225, (4-Chloro-1H-pyrazol-1-yl)(4-(3-chlorobenzyl)piperazin-1-yl)methanone], the inhibition at 1 µM was above 75% at ABHD6, above 75% at FAAH, above 75% at MAGL and below 25% on PLA2G7. Further, the IC50 on ABHD6 is 100 to 1000 nM; on FAAH, below 100 nM; on MAGL, below 100 nM; at PLA2G7, above 1000 nM.

Consider `COc1ccccc1N1CCN(C(=O)n2cc(C(F)(F)F)cn2)CC1` [Example 233, (4-(2-Methoxyphenyl)piperazin-1-yl)(4-(trifluoromethyl)-1H-pyrazol-1-yl)methanone], for which the inhibition at 1 µM on ABHD6, on FAAH, on MAGL and on PLA2G7 was above 75% each time. In addition, the inhibition at 10 µM at ABHD6, at FAAH, at MAGL and at PLA2G7 was above 75% throughout. Further, the IC50 at ABHD6, on FAAH, on MAGL and on PLA2G7 was below 100 nM throughout.

`CCN(Cc1ccc(C)cc1)C(=O)n1cc(Cl)cn1` [Example 133, 4-Chloro-N-ethyl-N-(4-methylbenzyl)-1H-pyrazole-1-carboxamide]: the inhibition at 1 µM on ABHD6 is below 25%; at FAAH it was above 75%; on MAGL, below 25%; at PLA2G7, below 25%. Besides, the inhibition at 10 µM at ABHD6 was above 75%; on FAAH it was above 75%; at MAGL it was above 75%; at PLA2G7, below 25%. The IC50 is above 1000 nM on ABHD6, below 100 nM at FAAH and above 1000 nM at MAGL.

As for `O=C(c1cnn(C(=O)N2CCN(Cc3ccccn3)CC2)c1)N1CCCCC1` [Example 72, Piperidin-1-yl(1-(4-(pyridin-2-ylmethyl)piperazine-1-carbonyl)-1H-pyrazol-4-yl)methanone], the inhibition at 1 µM at ABHD6 is below 25%; at FAAH it was below 25%; at MAGL, below 25%; at PLA2G7, above 75%. Moreover, the inhibition at 10 µM on ABHD6 is above 75%; on FAAH it was above 75%; at MAGL it was below 25%; at PLA2G7 it was above 75%.

With `O=C(c1cnn(C(=O)N2CCN(Cc3nccs3)CC2)c1)N1CCC1` [Example 91, Azetidin-1-yl(1-(4-(thiazol-2-ylmethyl)piperazine-1-carbonyl)-1H-pyrazol-4-yl)methanone], the inhibition at 1 µM on ABHD6 and at PLA2G7 was below 25% each time. Further, the inhibition at 10 µM on ABHD6 was above 75%; on FAAH, above 75%; on MAGL, below 25%; at PLA2G7, above 75%. The half-maximal inhibitory concentration (IC50) on FAAH was above 1000 nM.

Turning to `N#Cc1cnn(C(=O)N2CCCN(Cc3ccc(OCc4ccccc4)cc3)CC2)c1` [Example 303, 1-(4-(4-(Benzyloxy)benzyl)-1,4-diazepane-1-carbonyl)-1H-pyrazole-4-carbonitrile], the inhibition at 1 µM on ABHD6 (gel-based competitive ABPP) was below 25%; on FAAH (gel-based competitive ABPP) it was above 75%; on MAGL (gel-based competitive ABPP), above 75%; on PLA2G7 (gel-based competitive ABPP), below 25%.

For the compound `CCN(Cc1cccc(C)c1)C(=O)n1cc(C#N)cn1` [Example 246, 4-Cyano-N-ethyl-N-(3-methylbenzyl)-1H-pyrazole-1-carboxamide], the inhibition at 1 µM is above 75% at ABHD6 (gel-based competitive ABPP), above 75% on FAAH (gel-based competitive ABPP), above 75% on MAGL (gel-based competitive ABPP) and below 25% at PLA2G7 (gel-based competitive ABPP). The IC50 on ABHD6 is 100 to 1000 nM; on FAAH, below 100 nM; on MAGL it was 100 to 1000 nM; on PLA2G7, above 1000 nM.

The values above are taken from patent US10093630B2, “Pyrazole compounds and methods of making and using same” (ABIDE THERAPEUTICS, INC., priority 2014, dated 2018).
